{
  "source": "patent US11504387B2",
  "about": "“Bioconversion of oleuropein” (SOCIETE DES PRODUITS NESTLE S.A., priority 2017, dated 2022)",
  "origin": "cited, not measured here",
  "key": {"[1]": {"conditions": "compared with hydroxytyrosol"}, "[2]": {"conditions": "upper gastrointestinal tract and small intestine"}, "[3]": {"conditions": "compared to caffeic acid, oleuropein and hydroxytyrosol"}, "[4]": {"conditions": "in vivo"}},
  "data": [
    {"molecule": "hydroxytyrosol acetate", "values": [
      {"measurement": "solubility in the lipophilic phases", "setting": "[1]", "result": "more soluble in the lipophilic phases than hydroxytyrosol"}
    ]},
    {"molecule": "C/C=C1/[C@H](O[C@@H]2O[C@H](CO)[C@@H](O)[C@H](O)[C@H]2O)OC=C(C(=O)OC)[C@H]1CC(=O)OCCc1ccc(O)c(O)c1", "note": "[oleuropein]", "values": [
      {"measurement": "resistance to degradation", "setting": "[2]", "result": "resists degradation in the upper gastrointestinal tract and the small intestine"}
    ]},
    {"molecule": "CC=C1C(O)OC=C(C(=O)OC)C1CC(=O)OCCc1ccc(O)c(O)c1", "note": "(stereo not shown) [oleuropein aglycone, 3,4-dihydroxyphenylethanol-elenolic acid]", "values": [
      {"measurement": "antioxidant activity", "setting": "[3]", "result": "comparable to that of caffeic acid, oleuropein and hydroxytyrosol"},
      {"measurement": "clearance from the plasma", "setting": "[4]", "result": "slower clearance from the plasma compared with hydroxytyrosol and oleuropein"}
    ]}
  ]
}
